Key:
[1] = target: T1, sarkosyl insoluble (SI) α-synuclein (human α-SYN A53T) (Homo sapiens, UniProt P37840, A53T); assay: MJFF-14-6-4-2 conformation specific ELISA of sarkosyl insoluble α-synuclein after compound treatment; format: cell-based; conditions: 1 μM compound; protein remaining relative to DMSO control; PFF induced A53T α-synuclein overexpressing HEK293 cells; read-out: Protein Degradation at 1 μM
T1 construct: expressed in transfected cells
Method: (§1) Targeted degradation of sarkosyl insoluble (SI) α-synuclein via exemplary bifunctional compounds was assessed by MJFF-14-6-4-2 conformation specific ELISA following treatment of PFF induced A53T α-synuclein overexpressing HEK293 cells with 1 μM exemplary compound compared to DMSO vehicle control. Degradation activity of the exemplary compounds of Table 2 is expressed as % DMSO control. […] However, the effect of bifunctional targeting degraders, shown in FIG. 5, required the intact E3 ligase binding domain.
(§2) Trex293 (doxycycline inducible) cells stably expressing human α-SYN A53T (monoclonal) were plated in poly-d-lysine coated T-75 tissue culture flasks (4.5×10e6 cells/flask) in DMEM with 10% tet-free FBS, 10 μg/ml blasticidin, and 400 μg/ml zeocin. After an overnight incubation, the cells were induced to express α-SYN by treatment with 1 μg/ml doxycycline (Dox) and exemplary bifunctional compound. After a 24 hour dox induction, the medium on the cells was changed to Opti-MEM followed by treatment with α-SYN pre-formed fibrils** (PFFs)(5 μg/flask) pre-complexed with Lipofectamine 2000 transfection reagent for 4 hours. After PFF treatment, the medium was changed back to DMEM with the supplements described above and exemplary bifunctional compound for 48 hours.
(§3) Cell pellets were harvested from each flask using 0.25% trypsin followed by spinning at 500×g for 5 minutes. Each pellet was resuspended in 1 ml cold buffer H [Buffer H-10 mM Tris, 1 mM EGTA, 0.8M NaCl, 10% sucrose, pH7.4 containing 1× protease and phosphatase inhibitors] containing protease and phosphatase inhibitors. The resuspended pellets were incubated on ice for 20 minutes followed by centrifugation at 27,200×g for 20 minutes at 4° C. The supernatants were adjusted to 1% sarkosyl (Sigma) and 1% 2-mercaptoethanol followed by incubation for 1 hour at 37° C. on an orbital shaker set to 400 rpm. The samples were then spun at 150,000×g for 35 minutes at room temperature. The supernatant was removed and saved as the soluble fraction and the insoluble pellet was resuspended in 25 μl tris-buffered saline (TBS). Protein concentrations were determined by NanoDrop, and normalized protein concentrations were analyzed by WES capillary electrophoresis as well as an α-SYN oligomer ELISA.
Recombinant human α-SYN was purchased from Proteos. 1 mg aliquots were supplied at 10 mg/ml in 10 mM Tris, 50 mM NaCl, pH7.6. The aliquot was thawed on ice followed by centrifugation at 4° C. for 10 minutes at 12,000×g to pellet any insoluble material. The supernatant was removed and quantitated on a NanoDrop (A280) using Beer's Law (ε=5960 M-1 cm-1). The concentration was adjusted to 5 mg/ml in PBS followed by vortexing for 3 seconds to mix contents. The mixture was incubated in an orbital shaker set to 37° C. at 1,000 rpm for 7 days followed by aliquoting into individual use vials. Prior to addition to cells, an aliquot was thawed at room temperature, then diluted to 1 mg/ml with phosphate-buffered saline (PBS) followed by sonication for 1 minute with a probe sonicator (output 1; 90% duty cycle) in a chem hood.
Coming Costar high bind black well plates were coated with MJFR 14-6-4-2 (Abcam) at 1 μg/ml for 1 hour at 37° C. followed by washing with 1×TBS+0.1% tween-20 (TBS-T) then blocking with 3% bovine serum albumin (BSA) in TBS. After re-washing, samples were added after dilution in diluent (1% BSA/TBS-T). Non-sonicated PFF was used to generate a standard curve. The plates were incubated with sample overnight at 4° C. with shaking. The following day alkaline phosphatase (AP) conjugated MJFR 14-6-4-2 was added to the plate without washing followed by incubation at room temperature for 1 hour with shaking or rocking. The plates were then re-washed and substrate (CDP star alkaline phosphatase detection reagent) was added followed by a 30 minute incubation at room temperature. The plate was read on a luminescence plate reader. The counts were log transformed and read off the standard curve. […]

[2] = system: PFF induced HEK293 TREX α-syn A53T cells; assay: Cytotoxicity by visual inspection of treated cells; format: cell-based, human; conditions: 1 μM
Method: as §1, §2
To assess targeted degradation of sarkosyl insoluble α-synuclein, exemplary bifunctional compounds designed to bind to oligomeric α-synuclein were tested at 1 μM in PFF induced HEK293 TREX α-syn A53T cells.

[3] = target: T2, SI A53T α-synuclein protein oligomers (Homo sapiens, UniProt P37840, A53T); assay: E3 ligase ligand competition experiment (Oligomer ELISA); format: cell-based; conditions: for Degradation activity with co-incubated excess E3 ligase ligand: 1 uM compound plus 15-fold molar excess E3 ligase ligand (VHL Ligand with 7, Cereblon Ligand with 23), FIG. 6A bars 2 and 4; for Reduction of SI A53T α-synuclein oligomers (Oligomer ELISA), compound alone: 1 uM compound, no competitor, FIG. 6A bars 1 and 3
T2 construct: expressed in transfected cells
Method: FIGS. 6A and 6B. α-Synuclein bifunctional degradation compound activity requires the E3 ligase activity for effective degradation. Pre-formed alpha-synuclein fibrils (α-syn PFFs) were added to TREX tetracycline inducible HEK293 cells that overexpress A53T mutant α-syn to induce detergent-insoluble oligomers as measured by Oligomer ELISA. Doxycycline induced α-syn A53T cells were treated with PFFs to produce higher order oligomeric α-syn A53T in the sarkosyl insoluble fraction and SI α-syn oligomers were detected by ELISA, as described in below. Exemplary bifunctional degradation compounds 7 and 23 at 1 uM concentration, used to generate the data shown in bars 1 and 3, reduced sarkosyl insoluble α-syn.
as §2, §3
Coming Costar high bind black well plates were coated with MJFR 14-6-4-2 (Abcam) at 1 μg/ml for 1 hour at 37° C. followed by washing with 1×TBS+0.1% tween-20 (TBS-T) then blocking with 3% bovine serum albumin (BSA) in TBS. […] The plate was read on a luminescence plate reader. The counts were log transformed and read off the standard curve. […]

Compound	remaining activity at 1 µM [1]	Cytotoxicity at the concentration tested [2]	Degradation activity with co-incubated excess E3 ligase ligand [3]	Reduction of SI A53T α-synuclein oligomers (Oligomer ELISA), compound alone [3]
Cc1ncsc1-c1ccc([C@H](C)NC(=O)[C@@H]2C[C@@H](O)CN2C(=O)[C@@H](NC(=O)COCCOCCOc2ccc(CN3C(=O)C(=CC=Cc4ccc([N+](=O)[O-])cc4)c4ccccc43)cc2)C(C)(C)C)cc1 (single isomer, unassigned) [Exemplary Compound 7]	35 to 70%	without any visual impact to cell health	effectively competed	effectively reduced
O=C1CCC(N2C(=O)c3ccc(N4CCN(CCN5CCC(OC6CN(CCCN7c8ccccc8Sc8ccccc87)C6)CC5)CC4)cc3C2=O)C(=O)N1 (stereo not shown) [Exemplary Compound 23, 5-(4-(2-(4-((1-(3-(10H-phenothiazin-10-yl)propyl)azetidin-3-yl)oxy)piperidin-1-yl)ethyl)piperazin-1-yl)-2-(2,6-dioxopiperidin-3-yl)isoindoline-1,3-dione]	35 to 70%	–	effectively competed	effectively reduced

From US12594264B2, “Modulators of alpha-synuclein proteolysis and associated methods of use” (Arvinas Operations, Inc., priority 2018, dated 2026)
